Numbers after ± are expanded uncertainties.
How the values were obtained:
[1] = xn = mol fraction of the nth substance listed; details: 101 kPa, Liquid, x2 = 0; for speed of sound: Sing-around technique in a fixed-path interferometer; for mass density: Vibrating tube method
[2] = refractive index (Na D-line) (dimensionless); xn = mol fraction of the nth substance listed; details: 101 kPa, Liquid, Standard Abbe refractometry, x2 = 0
[3] = 101 kPa, Liquid; for speed of sound: Sing-around technique in a fixed-path interferometer; for mass density: Vibrating tube method
[4] = refractive index (Na D-line) (dimensionless); details: 101.33 kPa, Liquid, Standard Abbe refractometry

Row | Compound | speed of sound ([3]; 293.15 K) [m/s] | mass density ([3]; 293.15 K) [kg/m3] | speed of sound ([3]; 303.15 K) [m/s] | mass density ([3]; 303.15 K) [kg/m3] | speed of sound ([3]; 313.15 K) [m/s] | mass density ([3]; 313.15 K) [kg/m3] | speed of sound ([3]; 323.15 K) [m/s] | mass density ([3]; 323.15 K) [kg/m3] | speed of sound ([3]; 333.15 K) [m/s] | mass density ([3]; 333.15 K) [kg/m3] | speed of sound ([3]; 343.15 K) [m/s] | mass density ([3]; 343.15 K) [kg/m3] | refractive index ([4]; 293.15 K) | refractive index ([4]; 303.15 K) | refractive index ([4]; 313.15 K) | refractive index ([4]; 323.15 K) | refractive index ([4]; 333.15 K) | refractive index ([4]; 343.15 K) | also measured
1 | CCCCCCCCCC [decane] + c1ccc2c(c1)CCCC2 | – | – | – | – | – | – | – | – | – | – | – | – | – | – | – | – | – | – | speed of sound ([1]; 293.15 K): 1254.6 ± 1.2 m/s; mass density ([1]; 293.15 K): 730.1 ± 0.2 kg/m3; speed of sound ([1]; 303.15 K): 1215.1 ± 1.2 m/s; mass density ([1]; 303.15 K): 722.6 ± 0.3 kg/m3; speed of sound ([1]; 313.15 K): 1176.1 ± 1.2 m/s; mass density ([1]; 313.15 K): 714.9 ± 0.3 kg/m3; speed of sound ([1]; 323.15 K): 1137.6 ± 1.2 m/s; mass density ([1]; 323.15 K): 707.3 ± 0.3 kg/m3; speed of sound ([1]; 333.15 K): 1099.8 ± 1.2 m/s; mass density ([1]; 333.15 K): 699.5 ± 0.3 kg/m3; speed of sound ([1]; 343.15 K): 1062.3 ± 1.2 m/s; mass density ([1]; 343.15 K): 691.8 ± 0.3 kg/m3; refractive index ([2]; 293.15 K): 1.4123 ± 0.0005; refractive index ([2]; 303.15 K): 1.4079 ± 0.0005; refractive index ([2]; 313.15 K): 1.4033 ± 0.0005; refractive index ([2]; 323.15 K): 1.3987 ± 0.0005; refractive index ([2]; 333.15 K): 1.3942 ± 0.0005; refractive index ([2]; 343.15 K): 1.3893 ± 0.0005
2 | c1ccc2c(c1)CCCC2 [1,2,3,4-tetrahydronaphthalene] | 1489.5 ± 1.3 | 969.5 ± 0.2 | 1450.1 ± 1.2 | 961.6 ± 0.2 | 1411.5 ± 1.2 | 953.7 ± 0.2 | 1373.6 ± 1.2 | 945.7 ± 0.2 | 1336.4 ± 1.2 | 937.8 ± 0.2 | 1299.8 ± 1.2 | 929.8 ± 0.2 | 1.5414 ± 0.0005 | 1.5367 ± 0.0005 | 1.5321 ± 0.0005 | 1.5274 ± 0.0005 | 1.5228 ± 0.0005 | 1.518 ± 0.0005 | –
3 | CCCCCCCCCC [decane] | 1254.6 ± 1.2 | 730.1 ± 0.2 | 1215.1 ± 1.2 | 722.6 ± 0.3 | 1176.1 ± 1.2 | 714.9 ± 0.3 | 1137.6 ± 1.2 | 707.3 ± 0.3 | 1099.8 ± 1.2 | 699.5 ± 0.3 | 1062.3 ± 1.2 | 691.8 ± 0.3 | 1.4123 ± 0.0005 | 1.4079 ± 0.0005 | 1.4033 ± 0.0005 | 1.3987 ± 0.0005 | 1.3942 ± 0.0005 | 1.3893 ± 0.0005 | –

Reference: the NIST ThermoML archive (doi:10.1016/j.jct.2011.09.001)
